The target of one assay is 5-HT2B receptor (Homo sapiens, UniProt P41595). In words: h-5HT2B FLIPR calcium mobilization assay in HEK293 cells. The assay is classed as cell-based. Details: expressed in transfected cells; host or cells: HEK293, stably transfected. Here is the method: Compound potency (EC50) and efficacy (Max response) against the human 5-HT2B receptor in stably transfected HEK293 cells was determined in a calcium mobilization-based assay.
Cells were seeded in a total volume of 20 μL into white walled, 384-well microplates and incubated at 37° C. overnight. Prior to testing, cell plating media was exchanged with 20 μL of Dye Loading buffer (HBSS+20 mM HEPES containing 1×Dye, 1×Additive A and 2.5 mM Probenecid). Plates were incubated at 37° C. for 45 mins followed by 15 mins at room temperature.
10 μl of assay buffer (HBSS+20 mM HEPES) was added to cells. Intermediate dilution of sample stocks was performed to generate 4×sample in assay buffer. Assay plates, compound plates were loaded into F LIP R instrument. 10 μL of sample was added using F LIP R onboard robotics after 5 seconds of starting calcium measurement. Final assay vehicle concentration was 1%. The results are expressed as a percent efficacy relative to the maximum response of the control ligand (serotonin) in Table 28.
10 μl of assay buffer (HBSS+20 mM HEPES) was added to cells. Intermediate dilution of sample stocks was performed to generate 4×sample in assay buffer. Assay plates, compound plates were loaded into F LIP R instrument. 10 μL of sample was added using F LIP R onboard robotics after 5 seconds of starting calcium measurement. Final assay vehicle concentration was 1%. The results are expressed as a percent efficacy relative to the maximum response of the control ligand (serotonin) in Table 57.
(A change in cytosolic calcium serves as a functional read-out for many receptors and channels.)

Another assay addresses T1, human 5-HT1A receptor (Homo sapiens, UniProt P08908).
T1 sequence (P08908 1-422): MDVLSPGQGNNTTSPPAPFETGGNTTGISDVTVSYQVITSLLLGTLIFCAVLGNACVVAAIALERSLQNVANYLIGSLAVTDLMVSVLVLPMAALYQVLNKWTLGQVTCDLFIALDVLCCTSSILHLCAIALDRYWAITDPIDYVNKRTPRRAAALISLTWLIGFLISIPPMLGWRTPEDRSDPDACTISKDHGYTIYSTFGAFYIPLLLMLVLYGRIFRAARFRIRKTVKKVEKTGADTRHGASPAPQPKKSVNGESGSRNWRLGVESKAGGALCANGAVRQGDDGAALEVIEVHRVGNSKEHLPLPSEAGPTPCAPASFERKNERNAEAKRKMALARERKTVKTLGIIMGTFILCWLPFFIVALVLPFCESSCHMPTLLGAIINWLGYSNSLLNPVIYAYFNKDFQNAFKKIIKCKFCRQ
Nature of the assay: Human 5HT1A cAMP assay in CHO-K1 cells. It counts as cell-based. Details: expressed in transfected cells. Here is the method:
Compound potency (EC50) and efficacy (Max response) against the human 5-HT1A receptor in stably transfected CHO-K1 cells was determined in a GPCR cell-based cAMP assay.
Cells were seeded in a total volume of 20 μL into white walled, 384-well microplates and incubated at 37° C. overnight before analysis. Prior to testing, cell plating media was exchanged with 10 μL of Assay buffer (HBSS+10 mM HE P E S). Briefly, intermediate dilution of sample stocks was performed to generate 4×sample in assay buffer. 5 μL of 4×sample+5 μL of 4×forskolin was added to cells and incubated at 37° C. for 30 minutes. Final assay vehicle concentration was 1%. The results are expressed as a percent efficacy relative to the maximum response of the control ligand (serotonin) in Table 27.
Cells were seeded in a total volume of 20 μL into white walled, 384-well microplates and incubated at 37° C. overnight before analysis. Prior to testing, cell plating media was exchanged with 10 μL of Assay buffer (HBSS+10 mM HEPES). Briefly, intermediate dilution of sample stocks was performed to generate 4×sample in assay buffer. 5 μL of 4×sample +5 μL of 4×forskolin was added to cells and incubated at 37° C. for 30 minutes. Final assay vehicle concentration was 1%. The results are expressed as a percent efficacy relative to the maximum response of the control ligand (serotonin) in Table 56.

The target in the next assay is human 5-HT2A receptor (Homo sapiens, UniProt P28223). Nature of the assay: h-5HT2A β-arrestin reporter assay in U2OS cells. Details: expressed in transfected cells. The assay is classed as cell-based. Here is the method:
(§1) Compound potency (EC50) and efficacy (Max response) against the human 5-HT2A receptor in stably transfected U2OS cells was determined in a G protein-coupled receptors (GPCR) cell based p-arrestin reporter assay. Cells were seeded in a total volume of 20 μL into white walled, 384-well microplates and incubated at 37° C. overnight before analysis. For agonist determination, cells were incubated with sample to induce response. Intermediate dilution of sample stocks was performed to generate 5×sample in assay buffer. 5 μL of 5×sample was added to cells and incubated at 37° C. for 120 minutes. Final assay vehicle concentration was 1%.
as §1, with “5-HT2Areceptor” for “5-HT2A receptor”, “GPCR” for “G protein-coupled receptors (GPCR)”, “P-arrestin” for “p-arrestin”
In general terms: Reporter assays use an easily measured gene product as a stand-in for the process of interest.

The next assay addresses T2, human 5-HT2C receptor (Homo sapiens, UniProt P28335).
T2 construct: expressed in transfected cells; host or cells: U2OS, stably transfected
T2 sequence (P28335 33-458): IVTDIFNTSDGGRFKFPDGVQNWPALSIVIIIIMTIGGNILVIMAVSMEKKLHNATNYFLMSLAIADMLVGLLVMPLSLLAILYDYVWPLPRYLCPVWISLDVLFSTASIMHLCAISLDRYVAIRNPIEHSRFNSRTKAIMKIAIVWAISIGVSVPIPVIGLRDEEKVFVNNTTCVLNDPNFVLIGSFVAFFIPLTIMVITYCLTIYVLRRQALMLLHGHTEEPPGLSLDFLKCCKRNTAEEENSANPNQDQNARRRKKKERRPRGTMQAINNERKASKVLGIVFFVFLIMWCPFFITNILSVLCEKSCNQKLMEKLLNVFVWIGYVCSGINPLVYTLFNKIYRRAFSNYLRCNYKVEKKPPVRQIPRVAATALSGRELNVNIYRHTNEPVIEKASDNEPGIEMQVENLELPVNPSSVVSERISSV
In words: cell-based.

Setting [1] is: relative to maximum response of serotonin (Table 56).
[2] abbreviates: β-arrestin reporter, U2OS cells.
The mark [3] stands for this setting: FLIPR calcium mobilization, U2OS cells.
[4] abbreviates: relative to maximum response of serotonin (Table 28).
The mark [5] stands for this setting: relative to maximum response of serotonin (Table 27).
Where [6] appears, read: relative to maximum response of control ligand serotonin.
Where [7] appears, read: calcium mobilization, U2OS cells (Table 30).
The mark [8] stands for this setting: relative to maximum response of serotonin (Table 30).

For orientation: EC50 means the concentration at which the effect is half-maximal.

Structures are written as SMILES. Read-outs that look alike come from different tables or passages of the source.

Sequence of 5-HT2B receptor (P41595 whole entry): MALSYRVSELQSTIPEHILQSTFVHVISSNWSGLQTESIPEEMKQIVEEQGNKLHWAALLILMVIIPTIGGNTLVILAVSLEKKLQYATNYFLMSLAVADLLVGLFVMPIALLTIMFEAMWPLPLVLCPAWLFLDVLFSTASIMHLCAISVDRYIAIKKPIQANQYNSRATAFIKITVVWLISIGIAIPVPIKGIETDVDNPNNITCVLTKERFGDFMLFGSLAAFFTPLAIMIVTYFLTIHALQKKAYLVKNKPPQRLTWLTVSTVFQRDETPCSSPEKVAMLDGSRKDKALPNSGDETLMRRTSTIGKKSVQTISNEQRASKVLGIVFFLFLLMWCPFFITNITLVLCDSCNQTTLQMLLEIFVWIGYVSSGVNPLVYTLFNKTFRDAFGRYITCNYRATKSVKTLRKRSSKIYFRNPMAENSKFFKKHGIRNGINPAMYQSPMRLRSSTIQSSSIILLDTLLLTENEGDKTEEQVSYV
Sequence of human 5-HT2A receptor (P28223 whole entry): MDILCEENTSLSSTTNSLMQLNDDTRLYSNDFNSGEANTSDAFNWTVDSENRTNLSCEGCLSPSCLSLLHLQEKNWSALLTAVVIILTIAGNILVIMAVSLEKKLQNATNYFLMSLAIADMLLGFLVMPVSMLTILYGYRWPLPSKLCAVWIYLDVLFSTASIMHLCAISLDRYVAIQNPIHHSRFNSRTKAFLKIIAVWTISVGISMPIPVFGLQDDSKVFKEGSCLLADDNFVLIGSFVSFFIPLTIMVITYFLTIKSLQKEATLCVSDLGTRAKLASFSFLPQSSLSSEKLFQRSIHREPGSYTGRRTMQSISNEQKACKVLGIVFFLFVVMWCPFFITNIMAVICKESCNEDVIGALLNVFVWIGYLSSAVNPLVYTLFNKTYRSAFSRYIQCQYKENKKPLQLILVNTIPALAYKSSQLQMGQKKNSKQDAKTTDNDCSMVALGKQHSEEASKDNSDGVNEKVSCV

Regarding `COc1ccc2[nH]cc(CCN3CC[C@H](OC(F)F)C3)c2c1` [(S) I-67, (S)-3-(2-(3-(Difluoromethoxy)pyrrolidin-1-yl)ethyl)-5-methoxy-1H-indole], the EC50 on 5-HT2B receptor was > 10000 nM; on human 5-HT1A receptor, 11.6 nM; at human 5-HT2A receptor, 2070 nM; at human 5-HT2C receptor (setting [3]), 2690 nM. Besides, the “Emax (% of serotonin)” value is recorded as 4.23 % of serotonin at 5-HT2B receptor (relative to maximum response of serotonin (Table 57)), 98.47 % of serotonin on human 5-HT1A receptor (setting [1]), 38.02 % of serotonin at human 5-HT2A receptor (setting [2]) and 75.3 % of serotonin at human 5-HT2C receptor (setting [3]).
Turning to `[2H]C([2H])([2H])N(CCc1c[nH]c2ccc(SC)cc12)C([2H])([2H])[2H]` [Compound I-1, N,N-Bis(methyl-d3)-2-(5-(methylthio)-1H-indol-3-yl)ethan-1-amine], the EC50 is > 10000 nM at 5-HT2B receptor, 11.1 nM on human 5-HT1A receptor, 58.4 nM on human 5-HT2A receptor and 2.37 nM on human 5-HT2C receptor (setting [7]). The “Emax (% of serotonin)” value at 5-HT2B receptor (setting [4]) is given as 19.8 % of serotonin; at human 5-HT1A receptor (setting [5]) it was 96.18 % of serotonin; on human 5-HT2A receptor (setting [6]) it was 74 % of serotonin; at human 5-HT2C receptor (setting [8]), 98.89 % of serotonin.
As for `CCN(C)CCc1c[nH]c2ccc(SC)cc12` [Compound I-13, N-Ethyl-N-methyl-2-(5-(methylthio)-1H-indol-3-yl)ethan-1-amine], the EC50 at 5-HT2B receptor is > 10000 nM; at human 5-HT1A receptor, 9.06 nM; on human 5-HT2A receptor, 59.5 nM; at human 5-HT2C receptor (setting [7]), 2.89 nM. Also, the “Emax (% of serotonin)” value is on record as 21.04 % of serotonin at 5-HT2B receptor (setting [4]), 100.52 % of serotonin at human 5-HT1A receptor (setting [5]), 75.27 % of serotonin on human 5-HT2A receptor (setting [6]) and 92.77 % of serotonin on human 5-HT2C receptor (setting [8]).
Consider `CN(C)CCc1c[nH]c2ccccc12` [DMT], for which the “Emax (% of serotonin)” value was 87.1 % of serotonin on human 5-HT1A receptor (setting [5]), 87.1 % of serotonin on human 5-HT1A receptor (setting [1]), 38.86 % of serotonin on human 5-HT2A receptor (setting [6]) and 38.86 % of serotonin on human 5-HT2A receptor (setting [2]). Moreover, the EC50 at human 5-HT2A receptor (β-arrestin reporter, U2OS cells, 120 min, read-out: EC50) amounted to 114 nM; at human 5-HT2A receptor (β-arrestin reporter, U2OS cells, read-out: EC50), 114 nM.

These data come from patent US20250257034A1, “INDOLE DERIVATIVES AS SEROTONERGIC AGENTS USEFUL FOR THE TREATMENT OF DISORDERS RELATED THERETO” (priority 2023, published 2025).
